# Activity calls are given as the source filed them. The rule behind the calls is not given here.
# What was measured:
# MCF7 [1] = test: Cell cycle arrest in human MCF7 cells assessed as accumulation at S-phase at 7.5 uM measured after 24 hrs by muse cell analyser (reference value: 9.9 to 11.66%); type: functional
# MCF7 [2] = test: Cell cycle arrest in human MCF7 cells assessed as accumulation at G0/G1-phase at 7.5 uM measured after 24 hrs by muse cell analyser (reference value: 52.65 to 53.3%); type: functional
# [3] = Up regulation of HIF1 expression in human PANC-1 cells at 0.5 to 5 uM measured after 24 hrs by Western blot analysis relative to control; type: functional; conditions: dose 0.5-5 µM
# PANC-1 [4] = test: Cell cycle arrest in human PANC-1 cells assessed as accumulation at G0/G1-phase at 5 uM measured after 24 hrs by muse cell analyser (reference value: 48.28 to 48.7%); type: functional
# MCF7 [5] = test: Induction of apoptosis in human MCF7 cells assessed as late apoptotic cells at 5 uM measured after 48 hrs by Annexin V and dead cell kit analysis (reference value: 1.45%); type: functional
# MCF7 [6] = test: Up regulation of p53 expression in human MCF7 cells at 1 to 5 uM measured after 24 hrs by Western blot analysis; type: functional, cell-based; conditions: dose 1-5 µM
# PANC-1 [7] = test: Cell cycle arrest in human PANC-1 cells assessed as increase in accumulation at G0/G1-phase measured after 24 hrs by muse cell analyser; type: functional, cell-based
# PANC-1 [8] = test: Induction of autophagy in human PANC-1 cells assessed as increase in LC3 expression at 1 uM measured after 24 hrs by muse cell analyzer based fluorescence assay relative to control; type: functional
# MCF7 [9] = test: Induction of apoptosis in human MCF7 cells measured after 48 hrs by Annexin V and dead cell kit analysis; type: functional, cell-based; conditions: dose 5-7.5 µM
# PANC-1 [10] = test: Induction of apoptosis in human PANC-1 cells assessed as early apoptotic cells at 7.5 uM measured after 48 hrs by Annexin V and dead cell kit analysis (reference value: 10.95%); type: functional
# PANC-1 [11] = test: Down regulation of p21 expression in human PANC-1 cells at 5 uM measured after 24 hrs by Western blot analysis; type: functional, cell-based
# MCF7 [12] = test: Induction of apoptosis in human MCF7 cells assessed as late apoptotic cells at 7.5 uM measured after 48 hrs by Annexin V and dead cell kit analysis (reference value: 1.45%); type: functional
# MCF7 [13] = test: Cell cycle arrest in human MCF7 cells assessed as accumulation at G2/M-phase at 7.5 uM measured after 24 hrs by muse cell analyser (reference value: 30.92 to 33.6%); type: functional
# PANC-1 [14] = test: Cell cycle arrest in human PANC-1 cells assessed as accumulation at G2/M-phase at 2.5 uM measured after 24 hrs by muse cell analyser (reference value: 36.3 to 36.88%); type: functional
# PANC-1 [15] = test: Cell cycle arrest in human PANC-1 cells assessed as accumulation at G2/M-phase at 5 uM measured after 24 hrs by muse cell analyser (reference value: 36.3 to 36.88%); type: functional
# MCF7 [16] = test: Induction of apoptosis in human MCF7 cells assessed as viable cells at 5 uM measured after 48 hrs by Annexin V and dead cell kit analysis (reference value: 97.4%); type: functional; conditions: read-out: Activity
# PANC-1 [17] = test: Cell cycle arrest in human PANC-1 cells assessed as accumulation at G0/G1-phase at 2.5 uM measured after 24 hrs by muse cell analyser (reference value: 48.28 to 48.7%); type: functional
# PANC-1 [18] = test: Induction of apoptosis in human PANC-1 cells measured after 48 hrs by Annexin V and dead cell kit analysis; type: functional, cell-based; conditions: dose 5-7.5 µM
# MCF7 [19] = test: Cytotoxicity against human MCF7 cells assessed as reduction in cell viability measured after 72 hrs by MTS assay; type: functional, cell-based; conditions: MCF7, 72 h
# PANC-1 [20] = test: Induction of apoptosis in human PANC-1 cells assessed as late apoptotic cells at 7.5 uM measured after 48 hrs by Annexin V and dead cell kit analysis (reference value: 2.4%); type: functional
# PANC-1 [21] = test: Cell cycle arrest in human PANC-1 cells assessed as accumulation at S-phase at 5 uM measured after 24 hrs by muse cell analyser (reference value: 14.3 to 14.9%); type: functional
# MCF7 [22] = test: Induction of apoptosis in human MCF7 cells assessed as necrotic cells at 7.5 uM measured after 48 hrs by Annexin V and dead cell kit analysis (reference value: 0.5%); type: functional
# MCF7 [23] = test: Cell cycle arrest in human MCF7 cells assessed as accumulation at S-phase at 5 uM measured after 24 hrs by muse cell analyser (reference value: 9.9 to 11.66%); type: functional
# PANC-1 [24] = test: Cell cycle arrest in human PANC-1 cells assessed as accumulation at G0/G1-phase at 7.5 uM measured after 24 hrs by muse cell analyser (reference value: 48.28 to 48.7%); type: functional
# MCF7 [25] = test: Induction of reactive oxygen species generation in human MCF7 cells at 1 uM measured after 24 hrs by cellrox-green reagent based assay relative to control; type: functional
# MCF7 [26] = test: Induction of apoptosis in human MCF7 cells assessed as early apoptotic cells at 7.5 uM measured after 48 hrs by Annexin V and dead cell kit analysis (reference value: 0.65%); type: functional
# DNA = test: Induction of Escherichia coli supercoiled pUC19 plasmid DNA cleavage assessed as increase in open circular form of a plasmid at 25 uM incubated for 60 mins by agarose gel electrophoresis analysis; type: nucleic-acid assay
# PANC-1 [27] = test: Induction of apoptosis in human PANC-1 cells assessed as increase in PARP cleavage at 0.5 to 5 uM measured after 24 hrs by Western blot analysis; type: functional, cell-based; conditions: dose 0.5-5 µM
# PANC-1 [28] = test: Induction of apoptosis in human PANC-1 cells assessed as viable cells at 5 uM measured after 48 hrs by Annexin V and dead cell kit analysis (reference value: 85.6%); type: functional; conditions: read-out: Activity
# PANC-1 [29] = test: Cell cycle arrest in human PANC-1 cells assessed as accumulation at S-phase at 7.5 uM measured after 24 hrs by muse cell analyser (reference value: 14.3 to 14.9%); type: functional
# MCF7 [30] = test: Effect on cdc2 expression in human MCF7 cells at 1 to 5 uM measured after 24 hrs by Western blot analysis; type: functional, cell-based; conditions: dose 1-5 µM
# K562 = test: Cytotoxicity against human K562 cells assessed as reduction in cell viability measured after 72 hrs by MTS assay; type: functional, cell-based; conditions: K562, 72 h
# PANC-1 [31] = test: Cell cycle arrest in human PANC-1 cells assessed as accumulation at S-phase at 2.5 uM measured after 24 hrs by muse cell analyser (reference value: 14.3 to 14.9%); type: functional
# PANC-1 [32] = test: Up regulation of p21 expression in human PANC-1 cells at 0.5 uM measured after 24 hrs by Western blot analysis; type: functional, cell-based
# MCF7 [33] = test: Induction of apoptosis in human MCF7 cells assessed as necrotic cells at 5 uM measured after 48 hrs by Annexin V and dead cell kit analysis (reference value: 0.5%); type: functional
# PANC-1 [34] = test: Induction of apoptosis in human PANC-1 cells assessed as viable cells at 7.5 uM measured after 48 hrs by Annexin V and dead cell kit analysis (reference value: 85.6%); type: functional; conditions: read-out: Activity
# MCF7 [35] = test: Induction of apoptosis in human MCF7 cells assessed as early apoptotic cells at 5 uM measured after 48 hrs by Annexin V and dead cell kit analysis (reference value: 0.65%); type: functional
# MCF7 [36] = test: Down regulation of cyclin E1 expression in human MCF7 cells at 1 uM measured after 24 hrs by Western blot analysis; type: functional, cell-based
smiles,measurement,setting,value
c1ccc(-c2cn(-c3ccc(-c4cc(-c5ccccn5)nc(-c5ccccn5)c4)cc3)nn2)nc1,Activity,MCF7 [1],10%
same,Activity,MCF7 [2],60.4%
same,fold change (FC),[3],30
same,Activity,PANC-1 [4],55.1%
same,Activity,MCF7 [5],11.4%
same,Activity,MCF7 [6],inactive
same,Activity,PANC-1 [7],Dose-dependent effect
same,fold change (FC),PANC-1 [8],2.2
same,Activity,MCF7 [9],Dose-dependent effect
same,Activity,PANC-1 [10],54.6%
same,Activity,PANC-1 [11],Active
same,Activity,MCF7 [12],17.45%
same,Activity,MCF7 [13],22%
same,Activity,PANC-1 [14],30.2%
same,Activity,PANC-1 [15],35.25%
same,viability at 5 µM,MCF7 [16],67.1%
same,Activity,PANC-1 [17],53.98%
same,Activity,PANC-1 [18],Dose-dependent effect
same,IC50,MCF7 [19],407 nM
same,Activity,PANC-1 [20],4.55%
same,Activity,PANC-1 [21],7.3%
same,Activity,MCF7 [22],4.15%
same,Activity,MCF7 [23],12.1%
same,Activity,PANC-1 [24],58.75%
same,Activity,MCF7 [25],>150%
same,Activity,MCF7 [26],28.2%
same,Activity,DNA,Active
same,Activity,PANC-1 [27],Active
same,viability at 5 µM,PANC-1 [28],48.8%
same,Activity,PANC-1 [29],6.9%
same,Activity,MCF7 [30],inactive
same,IC50,K562,916 nM
same,Activity,PANC-1 [31],11.2%
same,Activity,PANC-1 [32],Active
same,Activity,MCF7 [33],10.9%
same,viability at 7.5 µM,PANC-1 [34],39%
same,Activity,MCF7 [35],10.6%
same,Activity,MCF7 [36],Active

# Source: ChEMBL document CHEMBL4706629, “New derivatives of 4'-phenyl-2,2':6',2″-terpyridine as promising anticancer agents” (Eur J Med Chem, 2021)
